The values below come from ChEMBL document CHEMBL1123336, “Selective monoamine oxidase inhibitors. 3. Cyclic compounds related to 4-aminophenethylamine. Preparation and neuron-selective action of some 5-(2-aminoethyl)-2,3-dihydroindoles” (J Med Chem, 1986).

The structures appear in SMILES notation. Where “and” joins values, the source holds several entries; their conditions need not be identical. Equal entries are not always repeated.

In test [1] the target is Sodium-dependent serotonin transporter (Rattus norvegicus, UniProt P31652). Kind of test: Compound was tested in vitro for inhibition of Serotonin transporter uptake at serotonin uptake site.
Sodium-dependent serotonin transporter, sequence (P31652 whole entry): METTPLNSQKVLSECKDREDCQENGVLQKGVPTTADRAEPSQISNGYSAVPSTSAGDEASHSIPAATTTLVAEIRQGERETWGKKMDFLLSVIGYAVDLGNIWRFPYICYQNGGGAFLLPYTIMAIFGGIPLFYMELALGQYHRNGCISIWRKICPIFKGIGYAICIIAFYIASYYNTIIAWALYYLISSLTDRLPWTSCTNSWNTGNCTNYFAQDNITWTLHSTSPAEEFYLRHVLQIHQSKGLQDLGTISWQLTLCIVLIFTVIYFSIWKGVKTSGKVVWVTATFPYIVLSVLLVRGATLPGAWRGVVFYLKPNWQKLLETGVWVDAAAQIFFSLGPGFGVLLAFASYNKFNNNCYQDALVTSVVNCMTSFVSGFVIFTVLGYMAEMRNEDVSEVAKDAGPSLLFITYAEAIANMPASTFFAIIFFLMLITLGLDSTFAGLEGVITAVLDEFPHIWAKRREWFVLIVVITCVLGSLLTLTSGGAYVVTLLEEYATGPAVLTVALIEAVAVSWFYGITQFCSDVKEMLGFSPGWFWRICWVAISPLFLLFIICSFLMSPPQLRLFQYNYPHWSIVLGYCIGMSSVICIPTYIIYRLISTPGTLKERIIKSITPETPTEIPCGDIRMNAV
Test [2] has as its system Rattus norvegicus. The test can be described thus: Compound (po) was tested in vivo for inhibition of MAO activity remaining inside (N) DA synaptosomes of rat striatum. The test is classed as functional.
Test [3] deals with Norepinephrine transporter (Rattus norvegicus, UniProt Q9WTR4). Kind of test: In vitro inhibition of NE uptake at NE uptake site. The test is classed as functional.
Norepinephrine transporter, sequence (Q9WTR4 whole entry): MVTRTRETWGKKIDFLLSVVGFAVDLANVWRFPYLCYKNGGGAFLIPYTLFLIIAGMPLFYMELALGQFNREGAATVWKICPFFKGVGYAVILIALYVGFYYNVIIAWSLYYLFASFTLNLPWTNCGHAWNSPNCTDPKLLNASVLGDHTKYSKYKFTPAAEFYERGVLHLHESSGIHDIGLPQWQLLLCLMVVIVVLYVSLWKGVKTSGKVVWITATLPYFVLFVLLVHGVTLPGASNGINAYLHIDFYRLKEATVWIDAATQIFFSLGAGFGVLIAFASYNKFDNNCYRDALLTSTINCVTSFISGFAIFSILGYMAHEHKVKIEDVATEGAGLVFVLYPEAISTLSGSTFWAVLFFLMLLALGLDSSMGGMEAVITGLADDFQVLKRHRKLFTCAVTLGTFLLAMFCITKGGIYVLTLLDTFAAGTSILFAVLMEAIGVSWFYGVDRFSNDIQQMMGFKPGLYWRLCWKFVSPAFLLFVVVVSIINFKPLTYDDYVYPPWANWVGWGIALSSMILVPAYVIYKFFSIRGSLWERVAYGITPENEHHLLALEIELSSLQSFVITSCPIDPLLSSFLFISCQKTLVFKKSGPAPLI
Test [4] relates to Rattus norvegicus. The test can be described thus: Compound (po) was tested in vivo for inhibition of MAO activity remaining inside (N) NE synaptosomes of rat hypothalamus. The test is classed as functional.
For test [5], the species on record is Rattus norvegicus. The test can be described thus: The lowest dose that release 5-HT causing a serotonin syndrome in rat. In kind it is functional.
Test [6] addresses T1, Monoamine oxidase (Rattus norvegicus, UniProt P19643+P21396).
T1 sequence (P19643 whole entry): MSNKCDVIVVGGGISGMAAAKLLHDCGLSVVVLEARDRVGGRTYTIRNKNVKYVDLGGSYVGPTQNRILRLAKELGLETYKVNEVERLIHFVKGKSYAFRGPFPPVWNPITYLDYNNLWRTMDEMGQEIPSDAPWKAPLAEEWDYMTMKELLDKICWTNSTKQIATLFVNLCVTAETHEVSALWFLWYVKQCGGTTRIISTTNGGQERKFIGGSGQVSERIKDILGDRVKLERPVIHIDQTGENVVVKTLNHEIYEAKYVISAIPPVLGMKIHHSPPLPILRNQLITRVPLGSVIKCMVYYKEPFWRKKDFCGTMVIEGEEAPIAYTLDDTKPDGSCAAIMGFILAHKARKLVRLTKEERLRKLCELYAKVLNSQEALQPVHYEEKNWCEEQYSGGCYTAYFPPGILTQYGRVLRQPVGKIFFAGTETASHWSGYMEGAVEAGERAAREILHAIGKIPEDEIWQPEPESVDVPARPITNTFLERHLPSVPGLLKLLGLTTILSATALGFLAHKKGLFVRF
T1 sequence (P21396 whole entry): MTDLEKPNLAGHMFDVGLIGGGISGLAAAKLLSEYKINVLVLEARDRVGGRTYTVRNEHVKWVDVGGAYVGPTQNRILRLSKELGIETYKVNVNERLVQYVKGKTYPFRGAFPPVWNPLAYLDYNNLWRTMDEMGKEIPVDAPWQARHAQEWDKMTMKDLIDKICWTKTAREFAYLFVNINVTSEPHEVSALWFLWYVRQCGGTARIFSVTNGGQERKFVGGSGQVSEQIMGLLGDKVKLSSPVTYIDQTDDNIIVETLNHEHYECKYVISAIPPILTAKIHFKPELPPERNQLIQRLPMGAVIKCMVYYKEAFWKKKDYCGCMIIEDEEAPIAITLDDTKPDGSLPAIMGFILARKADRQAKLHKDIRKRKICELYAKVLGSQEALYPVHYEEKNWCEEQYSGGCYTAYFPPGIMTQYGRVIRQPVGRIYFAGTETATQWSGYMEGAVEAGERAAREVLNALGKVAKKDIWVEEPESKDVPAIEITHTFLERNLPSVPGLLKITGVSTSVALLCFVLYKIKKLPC
The test can be described thus: Compound was tested in vitro for inhibition of MAO by using [14C]phenylethylamine as substrate in rat brain mitochondrial preparation. The test is classed as tissue-based.

Test [7] has as its system Rattus norvegicus. Kind of test: (§1) Compound (po) was tested in vivo for inhibition of MAO activity remaining outside (EN) DA synaptosomes of rat striatum. In kind it is functional.
A short description of test [8]: Ratio of the inhibition of MAO using [14C]-PEA and [14C]5-HT in rat brain. In kind it is tissue-based.
Test [9] addresses Sodium-dependent dopamine transporter (Rattus norvegicus, UniProt P23977). Kind of test: In […] inhibition of DA uptake at dopamine uptake site. The test is classed as functional.
The species named for test [10] is Rattus norvegicus. Kind of test: The lowest dose that release DA causing increased motor activity in rat. The test is classed as functional.
Test [11] relates to Rattus norvegicus. The test can be described thus: Compound (po) was tested in vivo for inhibition of MAO activity remaining inside (N) 5-HT synaptosomes of rat hypothalamus. The test is classed as functional.
In test [12] the target is T1, Monoamine oxidase. Kind of test: Compound was tested in vitro for inhibition of MAO by using [14C]5-HT as substrate in rat brain mitochondrial preparation. The test is classed as tissue-based.
The species entered for test [13] is Rattus norvegicus. Kind of test: The lowest dose that release NE causing reversal of ptosis in rat. In kind it is functional.
Test [14] can be described thus: Ratio of inhibition of MAO activity remaining outside (EN) and inside (N) synaptosomes. The test is classed as subcellular. The conditions noted are these: Brain.
For test [15], the system named is Rattus norvegicus. The test can be described thus: Compound (po) was tested in vivo for inhibition of MAO activity remaining outside (EN) 5-HT synaptosomes of rat hypothalamus. In kind it is functional.
Test [16] can be described thus: as §1. In kind it is functional.
In test [17] the test system is Rattus norvegicus. The test can be described thus: Compound (po) was tested in vivo for inhibition of Monoamino oxidase activity remaining inside (N) 5-HT synaptosomes of rat hypothalamus. In kind it is functional.
Test [18] addresses T1, Monoamine oxidase. Kind of test: Compound was tested in vitro for inhibition of Monoamino oxidase by using [14C]phenylethylamine as substrate in rat brain mitochondrial preparation. In kind it is tissue-based.
Test [19] has as its target T1, Monoamine oxidase. Kind of test: Compound was tested in vitro for inhibition of Monoamino oxidase by using [14C]5-HT as substrate in rat brain mitochondrial preparation. The test is classed as tissue-based.

Sodium-dependent dopamine transporter, sequence (P23977 whole entry): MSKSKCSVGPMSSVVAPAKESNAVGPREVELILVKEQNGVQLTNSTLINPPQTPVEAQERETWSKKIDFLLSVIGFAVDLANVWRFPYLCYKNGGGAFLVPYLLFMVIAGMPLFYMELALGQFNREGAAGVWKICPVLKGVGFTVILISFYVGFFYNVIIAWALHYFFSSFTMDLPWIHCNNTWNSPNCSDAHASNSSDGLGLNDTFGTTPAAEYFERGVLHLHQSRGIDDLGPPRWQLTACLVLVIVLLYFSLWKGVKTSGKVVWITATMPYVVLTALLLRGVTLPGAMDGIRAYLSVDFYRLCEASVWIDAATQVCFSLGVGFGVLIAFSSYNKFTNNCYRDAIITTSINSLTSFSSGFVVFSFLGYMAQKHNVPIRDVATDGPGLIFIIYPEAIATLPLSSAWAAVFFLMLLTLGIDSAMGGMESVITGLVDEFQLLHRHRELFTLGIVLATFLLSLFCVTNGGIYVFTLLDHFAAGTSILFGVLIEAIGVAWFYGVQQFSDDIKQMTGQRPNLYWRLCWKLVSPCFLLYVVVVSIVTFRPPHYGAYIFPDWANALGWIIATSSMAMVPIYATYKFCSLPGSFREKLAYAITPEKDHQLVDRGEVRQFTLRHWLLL

Take `CC(C)(N)Cc1ccc2c(c1)CCN2`: the IC50 is 1900 nM in test [1]; 2700 nM in test [3]; 2600 µM in test [6]; more than 10 µM in [9]; 2.8 µM in test [12]. For the same compound, the ED50 in test [2] was 8 µmol/kg; in test [4], 12 µmol/kg; in [5] it was 128 µmol/kg; in [7], 36 µmol/kg; in [10], more than 256 µmol/kg; in [11], 4.4 µmol/kg. In test [13], the ED50 was determined as 64 µmol/kg. The Ratio in test [8] stood at 929.

As to `CCC(N)Cc1ccc2c(c1Cl)CCN2` (configuration not stated), the 50% inhibitory concentration (IC50) is 300 nM in test [1], 1600 nM in test [3] and more than 10 µM in test [9]. For the same compound, the ED50 is 12 µmol/kg in test [2]; 11 µmol/kg in test [4]; 28 µmol/kg in test [5]; 28 µmol/kg in test [7]; more than 112 µmol/kg in test [10]; 9.1 µmol/kg in test [11]. Further, in test [13], the ED50 was more than 112 µmol/kg. Further, the Ratio in test [14] was 2 (2×) and 2.3.

Take `Cc1cc2c(cc1CC(C)N)CCN2` (configuration not stated): the IC50 in test [1] was more than 16000 nM; in test [3], 6000 nM; in test [6], 170 µM; in test [9] it was 6 µM; in test [12], 13 µM. Further, the ED50 in [2] was more than 61 µmol/kg; in test [4], 49 µmol/kg; in test [5] it was more than 61 µmol/kg; in test [7], more than 61 µmol/kg; in test [10], more than 61 µmol/kg; in [11], more than 61 µmol/kg. In addition, the ED50 in test [13] is more than 61 µmol/kg. Moreover, the figures for the Ratio in test [14] and in [8] were more than 1 and 13, respectively.

Turning to `CCN1CCc2cc(CC(C)N)c(C)cc21` (configuration not stated), the ED50 in test [15] was more than 27 µmol/kg; in test [2], 12 µmol/kg; in [4] it was 17 µmol/kg; in test [5], more than 87 µmol/kg; in test [16], 17 µmol/kg; in test [10] it was more than 87 µmol/kg. In addition, the figures for the ED50 in [11] and in test [13] were more than 27 µmol/kg and 87 µmol/kg, respectively. The IC50 was 2200 nM in [1]; 2500 nM in test [3]; 77 µM in test [6]; more than 10 µM in test [9]; 0.33 µM in test [12]. Moreover, the Ratio in [14] is > 3 and 1.4; in test [8], 233.

Consider `Cc1cc(N(C)C)ccc1CC(C)N` (configuration not stated), for which the IC50 in test [1] is 100 nM; in test [3] it was 650 nM; in test [6], more than 1000 µM; in test [9], more than 10 µM; in [12], 0.8 µM. The ED50 was 3.3 µmol/kg in test [2]; 2 µmol/kg in [4]; 7.5 µmol/kg in test [5]; 4.4 µmol/kg in [7]; more than 300 µmol/kg in test [10]; 1.1 µmol/kg in test [11]. Moreover, the ED50 in [13] was determined as 15 µmol/kg. Further, the Ratio in test [8] is more than 1250.

Take `CCC(N)Cc1ccc2c(c1)CCN2` (configuration not stated): the IC50 in test [1] stood at 3600 nM; in test [3], 500 nM; in [18], 800 µM; in test [9] it was 10 µM; in test [19], 14 µM. Further, the ED50 is 26 µmol/kg in [2]; 32 µmol/kg in test [4]; 64 µmol/kg in test [5]; 11 µmol/kg in test [17]; 74 µmol/kg in [7]; more than 256 µmol/kg in test [10]. The ED50 in test [13] was determined as 128 µmol/kg. The Ratio in test [8] was determined as 57.

On to `CCN1CCc2c1ccc(CC(C)N)c2C` (configuration not stated), for which the IC50 is 1500 nM in test [1]; 7500 nM in test [3]; more than 500 µM in [6]; more than 10 µM in test [9]; 1.1 µM in test [12]. Besides, the ED50 is 10 µmol/kg in [2]; 9 µmol/kg in test [4]; 87 µmol/kg in test [5]; 16 µmol/kg in test [7]; more than 87 µmol/kg in test [10]; 13 µmol/kg in test [11]. In test [13], the ED50 is more than 87 µmol/kg. Further, in test [8], the Ratio is more than 455.

For `Cc1c(CC(C)N)ccc2c1CCN2` (configuration not stated), the IC50 in [1] is 380 nM; in [3], 750 nM; in test [6], more than 500 µM; in [9], 9 µM; in [12], 0.8 µM. Moreover, the ED50 was 4.6 µmol/kg in test [2]; 1.1 µmol/kg in [4]; 64 µmol/kg in [5]; 13 µmol/kg in [7]; more than 128 µmol/kg in test [10]; 0.8 µmol/kg in test [11]. Also, the ED50 in [13] is 128 µmol/kg. Besides, in test [8], the Ratio is more than 625.

With `CC(N)Cc1ccc2c(c1)CCN2` (configuration not stated), the IC50 in [1] was 1800 nM; in test [3] it was 360 nM; in test [6], more than 100 µM; in [9], 3.8 µM; in [12] it was 5 µM. In addition, the ED50 came out at 0.8 µmol/kg in [2]; 1.1 µmol/kg in test [4]; 42 µmol/kg in test [5]; 20 µmol/kg in [7]; 42 µmol/kg in test [10]; 1.8 µmol/kg in test [11]. Besides, the ED50 in [13] was determined as 17 µmol/kg. Besides, the Ratio was > 15 and > 31 and 25 in test [14]; more than 20 in test [8].

Consider `CC(N)Cc1ccc2c(c1Cl)CCN2` (configuration not stated), for which the IC50 in test [1] was 340 nM; in [3], 320 nM; in [6] it was 800 µM; in test [9], more than 10 µM; in test [12], 0.2 µM. Moreover, the ED50 in test [2] is 2.2 µmol/kg; in test [4], 1.6 µmol/kg; in [5], 59 µmol/kg; in [7] it was 4.1 µmol/kg; in test [10], more than 59 µmol/kg; in [11] it was 1.5 µmol/kg. The ED50 in test [13] was 59 µmol/kg. In addition, in test [8], the Ratio stood at 4000.

In general, IC50 refers to the concentration at which inhibition is half-maximal. By ED50 is commonly meant the dose that gives a 50% effect, or the effect in half of the subjects.
